In assay [1] the target is T1, BlaC I105R (Mycobacterium tuberculosis, UniProt P9WKD3, I117R). Format: biochemical.
The target of assay [2] is T1, BlaC I105R. Type of assay: biochemical. Particulars: pH 6.4.

Several values for one entry are separate records, joined by “and”; a condition that tells them apart may be missing. Identical values can stand only once.

As for `O=C(Cc1cccs1)N[C@@H]1C(=O)N2C(C(=O)O)=C(/C=C/c3ccc([N+](=O)[O-])cc3[N+](=O)[O-])CS[C@H]12` [nitrocefin], at BlaC I105R [1], the ka was determined as 180000 M⁻¹ s⁻¹; the kc was 40 s⁻¹ and 57 s⁻¹. Also, the catalytic constant (kcat) at BlaC I105R [2] was determined as 24 ± 2 s⁻¹.
As for `CC1(C)S[C@@H]2[C@H](NC(=O)C(C(=O)O)c3ccccc3)C(=O)N2[C@H]1C(=O)O` (stereo partly drawn) [carbenicillin], the turnover number (kcat) on BlaC I105R [2] was found to be 0.27 ± 0.01 s⁻¹.
On the same count and under the same terms, next, `CC1(C)S[C@@H]2[C@H](NC(=O)[C@H](N)c3ccccc3)C(=O)N2[C@H]1C(=O)O` [ampicillin]: 3.4 ± 0.1 s⁻¹.
For the compound `O=C(O)[C@H]1/C(=C/CO)O[C@@H]2CC(=O)N21` [clavulanic acid], on BlaC I105R [1], the “in vitro sensitivity to inhibition compared with wild type” value is listed as “less sensitive”; the k1 came out at 1e+06 M⁻¹ s⁻¹; the k2 is 4.6 and 4.6 10^−2 s^−1; the k3 was 2 and 2 10^−3 s^−1.
In the case of `NC(=O)[C@@H]1CC[C@@H]2CN1C(=O)N2OS(=O)(=O)O` [avibactam], at BlaC I105R [1], the “in vitro sensitivity to inhibition compared with wild type” value is given as “less sensitive”; the k2 was 9.5 and 9.5 10^−2 s^−1; the k-2 is 0.1 and 0.1 10^−3 s^−1.

As a reminder, the kcat is the maximal rate divided by the concentration of active sites.
